Test results taken from patent publication US8703805B2 (Exelixis Patent Company LLC, priority 2005, dated 2014).

tested on: LXRα and/or LXRβ; experiment: LXR/LXRE co-transfection assay (luciferase reporter, CV-1 cells); format: cell-based, human; conditions: IC50 or EC50 for LXR (LXRα and/or LXRβ, not distinguished), tested as described in Example 109, CV-1 cells
In short: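 Transient co-transfection of CV-1 cells with full-length human LXRα or LXRβ plus RXRα expression plasmids and an LXREx1-Tk-luciferase reporter; compounds (10 μM screen, ≤1% DMSO) incubated 20 h at 37 °C. Luminescence read after lysis; EC50/IC50 from 8-point half-log curves, efficacy relative to a high control or DMSO.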

SMILES | EC50 [nM]
CCN1CCC(CNC(=O)c2cc(-c3ccc(-c4cccc(S(C)(=O)=O)c4)s3)n(-c3ccccc3Cl)n2)C1 (stereo not shown) [Example 739, 1-(2-chlorophenyl)-N-[(1-ethylpyrrolidin-3-yl)methyl]-5-{5-[3-(methylsulfonyl)phenyl}-2-thienyl}-1H-pyrazole-3-carboxamide] | 1000 to 10000
COC(=O)c1cc(-c2ccccc2Cl)n(-c2ccc(-c3cccc(S(C)(=O)=O)c3)cn2)n1 [Example 1230, methyl 5-(2-chlorophenyl)-1-{5-[3-(methylsulfonyl)phenyl]pyridin-2-yl}-1H-pyrazole-3-carboxylate] | 1000 to 10000
CC(C)(O)c1cc(-c2ccc(-c3cccc(NS(C)(=O)=O)c3)cc2)n(-c2ccccc2Cl)n1 [Example 1309, N-{4′-[1-(2-chlorophenyl)-3-(1-hydroxy-1-methylethyl)-1H-pyrazol-5-yl]biphenyl-3-yl}methanesulfonamide] | 1000 to 10000
CC(=O)c1cc(-c2ccccc2Cl)n(-c2ccc(-c3cccc(S(C)(=O)=O)c3)nc2)n1 [Example 1249, 1-[5-(2-chlorophenyl)-1-{6-[3-(methylsulfonyl)phenyl]pyridin-3-yl}-1H-pyrazol-3-yl]ethanone] | 1000 to 10000
CC(C)(O)c1cc(-c2cc(C(F)(F)F)nn2-c2ccccc2Cl)ccc1-c1cccc(S(C)(=O)=O)c1 [Example 1207, 2-{4-[1-(2-chlorophenyl)-3-(trifluoromethyl)-1H-pyrazol-5-yl]-3′-(methylsulfonyl)biphenyl-2-yl}propan-2-ol] | 1000 to 10000
CCC(=O)c1cc(-c2ccc(-c3cccc(S(C)(=O)=O)c3)s2)n(-c2ccccc2Cl)n1 [Example 1173, 1-[1-(2-chlorophenyl)-5-{5-[3-(methylsulfonyl)phenyl]-2-thienyl}-1H-pyrazol-3-yl]propan-1-one] | < 1000
CC(=O)c1cc(-c2ccc(-c3cccc(S(C)(=O)=O)c3)s2)n(-c2c(Cl)cccc2Cl)n1 [Example 1242, 1-[1-(2,6-dichlorophenyl)-5-{5-[3-(methylsulfonyl)phenyl]-2-thienyl}-1H-pyrazol-3-yl]ethanone] | < 1000
CC(C)(O)c1nn(-c2c(Cl)cncc2Cl)c(-c2ccc(-c3cccc(S(C)(=O)=O)c3)s2)c1Cl [Example 127, 2-(4-chloro-1-(3,5-dichloropyridin-4-yl)-5-(5-(3-(methylsulfonyl)phenyl)thiophen-2-yl)-1H-pyrazol-3-yl)propan-2-ol] | < 1000
CC(C)(O)c1cc(-c2ccc(-c3cccc4[nH]ccc34)cc2)n(-c2ccccc2Cl)n1 [Example 1286, 2-{1-(2-chlorophenyl)-5-[4-(1H-indol-4-yl)phenyl]-1H-pyrazol-3-yl}propan-2-ol] | 1000 to 10000
Cc1c(F)cccc1-n1nc(C(C)(C)O)cc1-c1ccc(-c2cccc(S(C)(=O)=O)c2)s1 [Example 1361, 2-[1-(3-fluoro-2-methylphenyl)-5-{5-[3-(methylsulfonyl)phenyl]-2-thienyl}-1H-pyrazol-3-yl]propan-2-ol] | < 1000
CC(C)(O)c1cc(-c2ccc(-c3cccc(S(C)(=O)=O)c3)s2)n(-c2ccc(F)cc2F)n1 [Example 1265, 2-[1-(2,4-difluorophenyl)-5-{5-[3-(methylsulfonyl)phenyl]-2-thienyl}-1H-pyrazol-3-yl]propan-2-ol] | < 1000
CS(=O)(=O)c1cccc(-c2ccc(-c3cc(C(=S)NCC(F)(F)F)nn3-c3ccccc3Cl)s2)c1 [Example 1277, 1-(2-chlorophenyl)-5-{5-[3-(methylsulfonyl)phenyl]-2-thienyl}-N-(2,2,2-trifluoromethyl)-1H-pyrazole-3-carbothioamide] | < 1000

Second part, the compound after the results:

EC50 [nM] | SMILES
< 1000 | C=C(C)c1cc(-c2ccc(-c3cccc(S(C)(=O)=O)c3)s2)n(-c2ccccc2Cl)n1 [Example 123, 1-(2-chlorophenyl)-5-(5-(3-(methylsulfonyl)phenyl)thiophen-2-yl)-3-(prop-1-en-2-yl)-1H-pyrazole]
< 1000 | CC(C)(O)c1cc(-c2ccc(-c3cccc(S(C)(=O)=O)c3)cc2)n(Cc2cccc(Cl)c2Cl)n1 [Example 1400, 2-(1-(2,3-dichlorobenzyl)-5-(3′-(methylsulfonyl)biphenyl-4-yl)-1H-pyrazol-3-yl)propan-2-ol]
< 1000 | CC(C)(O)c1nn(-c2c(Cl)cccc2Cl)c(-c2ccc(-c3cccc(S(C)(=O)=O)c3)s2)c1Cl [Example 1348, 2-[4-chloro-1-(2,6-dichlorophenyl)-5-{5-[3-(methylsulfonyl)phenyl]-2-thienyl}-1H-pyrazol-3-yl]propan-2-ol]
< 1000 | CC(C)(O)c1cc(-c2c(Cl)cccc2Cl)n(-c2ccc(-c3cccc(S(C)(=O)=O)c3)cc2Cl)n1 [Example 124, 2-(1-(3-chloro-3′-(methylsulfonyl)nbiphenyl-4-yl)-5-(2,6-dichlorophenyl)-1H-pyrazol-3-yl)propan-2-ol]
< 1000 | CC(C)(O)c1cc(-c2ccc(-c3cc(C(F)(F)F)nn3-c3cc(Cl)ccc3Cl)s2)cc(S(C)(=O)=O)c1 [Example 1308, 2-[3-{5-[1-(2,5-dichlorophenyl)-3-(trifluoromethyl)-1H-pyrazol-5-yl]-2-thienyl}-5-(methylsulfonyl)phenyl]propan-2-ol]
< 1000 | CC(C)(O)c1cccc(-c2ccc(-c3cc(C(C)(C)O)nn3-c3ccccc3Cl)cc2)c1 [Example 1307, 2-{1-(2-chlorophenyl)-5-[3′-(1-hydroxy-1-methylethyl)biphenyl-4-yl]-1H-pyrazol-3-yl}propan-2-ol]
< 1000 | Cc1cc(-c2cccc(S(C)(=O)=O)c2)ccc1-c1cc(C(C)(C)O)nn1-c1cccnc1C(F)(F)F [Example 1390, 2-(5-(3-methyl-3′-(methylsulfonyl)biphenyl-4-yl)-1-(2-(trifluoromethyl)pyridin-3-yl)-1H-pyrazol-3-yl)propan-2-ol]
< 1000 | CC(C)(O)c1nn(-c2ccncc2Cl)c(-c2ccc(-c3cccc(S(C)(=O)=O)c3)s2)c1Cl [Example 125, 2-(4-chloro-1-(3-chloropyridin-4-yl)-5-(5-(3-(methylsulfonyl)phenyl)thiophen-2-yl)-1H-pyrazol-3-yl)propan-2-ol]
< 1000 | CCC(O)c1cc(-c2ccc(-c3cccc(S(C)(=O)=O)c3)s2)n(-c2ccccc2Cl)n1 (stereo not shown) [Example 1175, 1-[1-(2-chlorophenyl)-5-{5-[3-(methylsulfonyl)phenyl]-2-thienyl}-1H-pyrazol-3-yl]propan-1-ol]
< 1000 | CC(C)(O)c1cc(-c2ccc(-c3cccc(S(C)(=O)=O)c3)cc2)n(-c2ccccc2Cl)n1 [Example 1219, 2-{1-(2-chlorophenyl)-5-[3′-(methylsulfonyl)biphenyl-4-yl]-1H-pyrazole-3-yl}propan-2-ol]
< 1000 | CCS(=O)(=O)c1cccc(-c2ccc(-c3cc(C(C)(C)C#N)nn3-c3ccccc3Cl)s2)c1 [Example 1180, 2-[1-(2-chlorophenyl)-5-{5-[3-(ethylsulfonyl)phenyl]-2-thienyl}-1H-pyrazol-3-yl]-2-methylpropanenitrile]
< 1000 | CC(C)(O)c1nn(-c2c(Cl)cccc2Cl)c(-c2ccc(-c3cccc(S(C)(=O)=O)c3)cc2Cl)c1Cl [Example 144, 2-(4-chloro-5-(3-chloro-3′-(methylsulfonyl)biphenyl-4-yl)-1-(2,6-dichlorophenyl)-1H-pyrazol-3-yl)propan-2-ol]
< 1000 | Cc1cccc(Cl)c1-n1nc(C(C)(C)O)cc1-c1ccc(-c2cccc(S(C)(=O)=O)c2)s1 [Example 1335, 2-[1-(2-chloro-6-methylphenyl)-5-{5-[3-(methylsulfonyl)phenyl]-2-thienyl}-1H-pyrazol-3-yl]propan-2-ol]
